Series [1] is described as follows: Cell viability assay (MTT), L929. In kind it is cell-based, Mus musculus. The note with it: mouse, L929 fibroblast cells. An outline of the steps: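 L929 and VERO cells seeded at 1.0 × 10^4/well, attached 24 h, then exposed 24 h to compounds at 0.9–125.00 μg/ml (from DMSO stock). MTT (1 mg/ml) added for 2 h at 37 °C, formazan dissolved in DMSO, OD read at 550 nm. Viability expressed as percentage of 2.5% DMSO-treated controls; triplicate.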

In series [2] the test system is Toxoplasma gondii BK strain. In words: T. gondii tachyzoite intracellular proliferation in VERO host cells ([3H]uracil incorporation). The format is cell-based. The settings on record: VERO host cells; for activity at 0.9 µg/mL / activity at 1.8 µg/mL / activity at 3.9 µg/mL / activity at 7.8 µg/mL / activity at 15.6 µg/mL / activity at 31.2 µg/mL / activity at 62.5 µg/mL / activity at 125 µg/mL / IC50: Toxoplasma gondii; for IC50 / IC50 (50% inhibition of T. gondii proliferation in vitro): GraphPad Prism curves; for IC50: read-out: IC50 (50% inhibition of T. gondii proliferation in vitro). As for the experimental part: The epithelial cell line VERO (ATCC-Catalog No. CCL-81^TM), derived from the kidney of the African green monkey, Cercopithecus aethiops and fibroblast cell line L-929 (ATCC-Catalog No. CCL-1^TM), derived from Mus musculus (http://www.atcc.org) were grown in Iscoves’s Modified Dulbecco’s Medium (IMDM) supplemented with 10% (v/v) fetal bovine serum (FBS), plus 2 mM L-glutamine, 100 U/ml penicillin, 100.00 µg/ml streptomycin, 5 × 10^−5 M 2-mercaptoethanol and maintained at 37 °C in a 10% CO2 atmosphere. Subcultures were performed via enzymatic cell dissociation in 0.25% trypsin. After dissociation, the cells were placed in culture medium at 4 °C with 10% FBS to inhibit the action of trypsin. The isolated cells were centrifuged for 10 min at 1000×g at 4 °C, and the cells were grown in new bottles. This procedure was repeated when cells reached a confluence of ~90%. All commercial reactants and solvents were purchased from either Sigma-Aldrich Laborchemikalien GmbH (Dzitko et al. [2014]).
Suspensions of the compounds 4a–l were freshly prepared (5 mg/ml DMSO) before the cells were exposed, and diluted to appropriate concentrations; 0.9, 1.8, 3.9, 7.8, 15.6, 31.2, 62.5, and 125.00 μg/ml with the culture medium. Cells treated with 2.5% DMSO-solvent served as a control in each experiment.
Stock solutions of the Sulfadiazine (100 mg/ml 1 N NaOH; Catalog No. S8626) was freshly prepared before each experiment, and diluted to appropriate concentrations: 5.00, 25.00, 50.00, 125.00, 250.00, 500.00, 1250.00, and 2500.00 μg/ml, respectively in IMDM complete medium. All commercial reactants and solvents were purchased from either Sigma-Aldrich Laborchemikalien GmbH.
Tachyzoites of T. gondii, BK strain, were maintained in female C57BL/6 (H-2^b) and BALB/c (H-2^d) mice (with genetically determined high and low susceptibility, respectively to Toxoplasma infection) via serial intraperitoneal inoculation of 10^5–10^6 parasites per mouse in phosphate-buffered saline (PBS). After 48 to 96 h, parasites were harvested via peritoneal lavage using PBS, pH 7.2, and centrifuged at 200×g for 5 min to remove blood cells and cell debris. The supernatant containing tachyzoites was collected and centrifuged again at 2000×g for 15 min. The final pellet was resuspended in IMDM, quantified in a Burker’s chamber, and used in experimental assays. Inbred mice were kept under standard laboratory conventional conditions. All experimental procedures were conducted according to guidelines of the 9. Local Ethics Commission for Experiments on Animals in Lodz.
VERO, (2 × 10^4 cells/100 µl/well) were grown in complete medium (IMDM) on 96-well plates. After 24 h incubation, a medium was removed and then T. gondii […] tachyzoites, suspended in culture medium supplemented with 0.9–125.00 μg/ml diaminotriazines 4a–l and as a control-sulfadiazine (5.0–2500.0 μg/ml), were added (2 × 10^5 tachyzoites/200 µl/well) to the cell monolayers. After subsequent 48 h incubation 1 µCi/well of [^3H] uracil (Moravek Biochemicals Inc., Brea, CA, USA) was applied to each microculture for further 18–20 h. The amount of the isotope incorporated into the parasite nucleic acid pool, corresponding to the parasite growth, was measured by liquid scintillation counting with 1450 Microbeta Plus Liquid Scintillation Counter (Wallac Oy, Turku, Finland). The cpms of host cells alone (below 250/microculture) were subtracted from cpms of T. gondii infected microcultures (Dzitko et al. [2014]).

The values below come from paper PMC5854716, “Synthesis, molecular docking, ctDNA interaction, DFT calculation and evaluation of antiproliferative and anti-Toxoplasma gondii activities of 2,4-diaminotriazine-thiazole derivatives” (Medicinal Chemistry Research, 2018).

Values after ≈ are worked out from the molar mass of the structure shown.

For `C/C(=N\Nc1nc(-c2ccc(F)cc2)cs1)c1ccc(Nc2nc(N)nc(N)n2)cc1` [Compound 4a, (E)-N^2-(4-(1-(2-(4-(4-fluorophenyl)-1,3-thiazol-2-yl)hydrazinylidene)ethyl)phenyl)-1,3,5-triazine-2,4,6-triamine], in series [1], the viability (in general, a read-out of living cells in per cent, often relative to untreated cells) at 24 h, 0.9 µg/ml came out at 96.6%; the viability at 24 h, 1.8 µg/ml is 101%; the viability at 24 h, 3.9 µg/ml came out at 105%; the viability at 24 h, 7.8 µg/ml was determined as 99%. Also, in series [1], the viability at 24 h, 15.6 µg/ml was found to be 102%; the viability at 24 h, 31.2 µg/ml was determined as 111%; the viability at 24 h, 62.5 µg/ml was 115%; the viability at 24 h, 125 µg/ml was determined as 111%. In addition, the activity at 0.9 µg/mL in series [2] (0.9 µg/ml) came out at 102%. The activity at 1.8 µg/mL in series [2] (1.8 µg/ml) stood at 101%. Moreover, the activity at 3.9 µg/mL in series [2] (3.9 µg/ml) is 101%. The activity at 7.8 µg/mL in series [2] (7.8 µg/ml) was 108%. Besides, in series [2] (15.6 µg/ml), the activity at 15.6 µg/mL was 99.1%. Also, the activity at 31.2 µg/mL in series [2] (31.2 µg/ml) amounted to 77.6%. Moreover, in series [2] (62.5 µg/ml), the activity at 62.5 µg/mL stood at 34.9%. For the same molecule, the activity at 125 µg/mL in series [2] (125.0 µg/ml) is 17.6%. The IC50 in series [2] was determined as 51.6 µg/mL (≈ 119 µM).
On to `C/C(=N\Nc1nc(-c2ccc(Cl)cc2)cs1)c1ccc(Nc2nc(N)nc(N)n2)cc1` [Compound 4b, (E)-N^2-(4-(1-(2-(4-(4-chlorophenyl)-1,3-thiazol-2-yl)hydrazinylidene)ethyl)phenyl)-1,3,5-triazine-2,4,6-triamine], for which, in series [1], the viability at 24 h, 0.9 µg/ml amounted to 94.8%; the viability at 24 h, 1.8 µg/ml was found to be 95.3%; the viability at 24 h, 3.9 µg/ml came to 99.4%; the viability at 24 h, 7.8 µg/ml was 99.4%. In series [1], the viability at 24 h, 15.6 µg/ml was 110%; the viability at 24 h, 31.2 µg/ml is 113%; the viability at 24 h, 62.5 µg/ml amounted to 119%; the viability at 24 h, 125 µg/ml was determined as 118%. Also, the activity at 0.9 µg/mL in series [2] (0.9 µg/ml) was 100%. In addition, the activity at 1.8 µg/mL in series [2] (1.8 µg/ml) was determined as 106%. In series [2] (3.9 µg/ml), the activity at 3.9 µg/mL worked out at 101%. Besides, the activity at 7.8 µg/mL in series [2] (7.8 µg/ml) was determined as 98.2%. Moreover, the activity at 15.6 µg/mL in series [2] (15.6 µg/ml) was found to be 74.6%. Also, in series [2] (31.2 µg/ml), the activity at 31.2 µg/mL was 52.2%. Also, the activity at 62.5 µg/mL in series [2] (62.5 µg/ml) worked out at 26.1%. The activity at 125 µg/mL in series [2] (125.0 µg/ml) was determined as 14.7%. In addition, the IC50 in series [2] was determined as 33 µg/mL (≈ 73.1 µM).
`C/C(=N\Nc1nc(-c2ccc(C)cc2)cs1)c1ccc(Nc2nc(N)nc(N)n2)cc1` [Compound 4c, (E)-N^2-(4-(1-(2-(4-(4-tolyl)-1,3-thiazol-2-yl)hydrazinylidene)ethyl)phenyl)-1,3,5-triazine-2,4,6-triamine]: in series [1], the viability at 24 h, 0.9 µg/ml came to 98.2%; the viability at 24 h, 1.8 µg/ml was found to be 95.5%; the viability at 24 h, 3.9 µg/ml came out at 98.2%; the viability at 24 h, 7.8 µg/ml was found to be 92.9%. For the same molecule, in series [1], the viability at 24 h, 15.6 µg/ml came to 102%; the viability at 24 h, 31.2 µg/ml amounted to 105%; the viability at 24 h, 62.5 µg/ml is 106%; the viability at 24 h, 125 µg/ml stood at 118%. Moreover, in series [2] (0.9 µg/ml), the activity at 0.9 µg/mL is 102%. Also, the activity at 1.8 µg/mL in series [2] (1.8 µg/ml) was 102%. In addition, the activity at 3.9 µg/mL in series [2] (3.9 µg/ml) was found to be 110%. The activity at 7.8 µg/mL in series [2] (7.8 µg/ml) was 100%. Further, the activity at 15.6 µg/mL in series [2] (15.6 µg/ml) worked out at 86.2%. Moreover, in series [2] (31.2 µg/ml), the activity at 31.2 µg/mL is 58.6%. Moreover, the activity at 62.5 µg/mL in series [2] (62.5 µg/ml) was found to be 40.1%. Moreover, the activity at 125 µg/mL in series [2] (125.0 µg/ml) worked out at 30.9%. Further, in series [2], the IC50 was 51.4 µg/mL (≈ 119 µM).
Turning to `C/C(=N\Nc1nc(-c2cc3ccccc3oc2=O)cs1)c1ccc(Nc2nc(N)nc(N)n2)cc1` [Compound 4f, (E)-3-(2-(2-(1-(4-(4,6-diamino-1,3,5-triazin-2-yloamino)phenyl)ethylidene)hydrazinyl)thiazol-4-yl)-2H-chromen-2-on], the “T. gondii intracellular proliferation” value in series [2] (0.9 µg/ml) is recorded as 101.02%; in series [2] (1.8 µg/ml), 98.89%; in series [2] (3.9 µg/ml), 75.89%; in series [2] (7.8 µg/ml), 64.30%; in series [2] (15.6 µg/ml), 55.65%; in series [2] (31.2 µg/ml) it was 50.52%. For the same molecule, the “T. gondii intracellular proliferation” value in series [2] (62.5 µg/ml) is reported as 37.17%; in series [2] (125.0 µg/ml), 14.03%. For the same molecule, in series [2], the “IC50 (50% inhibition of T. gondii proliferation in vitro)” value came to 21.53 µg/mL.
For `CC(=O)Nc1ccc(-c2csc(N/N=C(\C)c3ccc(Nc4nc(N)nc(N)n4)cc3)n2)cc1` [Compound 4g, (E)-N^2-(4-(2-(2-(1-(4-(4,6-diamino-1,3,5-triazin-2-yloamino)phenyl)ethylidene)hydraziny)thiazol-4-yl)phenyl)-acetamide], the “T. gondii intracellular proliferation” value was 100.01% in series [2] (0.9 µg/ml); 100.69% in series [2] (1.8 µg/ml); 69.35% in series [2] (3.9 µg/ml); 66.62% in series [2] (7.8 µg/ml); 46.71% in series [2] (15.6 µg/ml); 42.95% in series [2] (31.2 µg/ml). For the same molecule, the “T. gondii intracellular proliferation” value in series [2] (62.5 µg/ml) is 41.74%; in series [2] (125.0 µg/ml), 19.11%. Besides, the “IC50 (50% inhibition of T. gondii proliferation in vitro)” value in series [2] is 18.70 µg/mL.
Turning to `C/C(=N\Nc1nc(-c2ccc(NS(C)(=O)=O)cc2)cs1)c1ccc(Nc2nc(N)nc(N)n2)cc1` [Compound 4j, (E)-N-(4-(2-(2-(1-(4-(4,6-diamino-1,3,5-triazin-2-yloamino)phenyl)ethylidene)hydrazinyl)thiazol-4-yl)phenyl)-methanesulfonamide], the “T. gondii intracellular proliferation” value came to 99.93% in series [2] (0.9 µg/ml); 100.25% in series [2] (1.8 µg/ml); 99.58% in series [2] (3.9 µg/ml); 89.65% in series [2] (7.8 µg/ml); 78.25% in series [2] (15.6 µg/ml); 67.01% in series [2] (31.2 µg/ml). The entries for the “T. gondii intracellular proliferation” value in series [2] (62.5 µg/ml) and in series [2] (125.0 µg/ml) were 46.07% and 34.60%, respectively. The “IC50 (50% inhibition of T. gondii proliferation in vitro)” value in series [2] turned out to be 59.87 µg/mL.
Turning to `C/C(=N\Nc1nc(-c2ccc3[nH]c(=O)oc3c2)cs1)c1ccc(Nc2nc(N)nc(N)n2)cc1` [Compound 4l, (E)-6-(2-(2-(1-(4-(4,6-diamino-1,3,5-triazin-2-yloamino)phenyl)ethylidene)hydrazinyl)thiazol-4-yl)-benzo[d]oxazol-2(3H)-on], the “T. gondii intracellular proliferation” value in series [2] (0.9 µg/ml) worked out at 99.98%; in series [2] (1.8 µg/ml), 101.25%; in series [2] (3.9 µg/ml), 106.91%; in series [2] (7.8 µg/ml), 79.89%; in series [2] (15.6 µg/ml), 56.46%; in series [2] (31.2 µg/ml) it was 45.15%. Moreover, in series [2] (62.5 µg/ml), the “T. gondii intracellular proliferation” value came to 20.34%. In addition, in series [2], the “IC50 (50% inhibition of T. gondii proliferation in vitro)” value was 23.09 µg/mL.
